Measurements published in paper PMC7156724, “Potent BRD4 inhibitor suppresses cancer cell-macrophage interaction” (Nature Communications, 2020).
Values joined by “and” are separate entries in the source; they are usually repeats but may differ in a detail not shown here. Equal values may be shown once.

How the values were obtained:
[1] = tested on: NCI-H211 small cell lung cancer (SCLC) cells; assay: AlamarBlue assay, NCI-H211; format: cell-based; conditions: for Cellular activity in SCLCs (H211), alamarBlue: Fig.1e, replicates
Description: (§1) 3. AlamarBlue assay. AlamarBlue was made by resazurin sodium salt (Sigma, Cat
(§2) # 199303) dissolved in PBS.
(§3) NCI-H211, MDA-MB231 and A375 cells were plated in 96-well plates at approximately 30% confluence and left overnight to adhere. In the following day, […]
(§4) of treatment, 10 μl AlamarBlue reagent (0.3 mg/ml) was added to each well, and after 18h, the florescence intensity in each well was measured using a top-reading fluorescent plate reader with excitation at 530 nm and emission at 590 nm. […]

[2] = tested on: MDA-MB231 triple negative breast cancer (TNBC) cells; assay: AlamarBlue assay, MDA-MB231; format: cell-based, human; conditions: for Cellular activity in TNBCs (MDA-MB231), alamarBlue: Fig.1f, replicates
Description: as §1, §2, §3, §4

[3] = tested on: A375 human melanoma; assay: A375 human melanoma xenograft tumor growth; format: in vivo, mouse; conditions: Fig.3e, Group 5, 1 mg/kg PO QD, 5 Days on, 2 Days off / week x3, individual animals
Excerpt: PO, oral administration; QD, once daily; BID, twice daily. b–d Tumor growth curves for A2780 ovarian tumor (n = 5) (b), TMD8 large B cell lymphoma (n = 6) (c), and B16F10 melanoma (n = 5) (d) bearing mice treated with the indicated compounds once daily for 11-21 days. e, f Tumor growth curves for A375 melanoma (n = 6) (e), and patient-derived xenograft (PDX) of melanoma (n = 5) (f) bearing mice treated with the indicated compounds once daily (5 days on, 2 days off) for 21 days. For d–f, NHWD-870 used is NHWD-870-HCl synthesized using Suzuki coupling route. Data are presented as mean ± SEM in (a, b, d, f) and mean + SEM in (c, e). p values were calculated using two-tailed, unpaired t tests. *p < 0.05; **p < 0.01; ***p < 0.001. Source data are provided as a Source Data file.
4–6 weeks old female BALB/c nude mice were used for most experiments, with the exception of 6–8 weeks old female C57BL/6 mice were used for B16F10 experiments, and 6–8 weeks old male BALB/c nude mice and SD rats were used for pharmacokinetic experiments. All animals were purchased from Shanghai SIPPR-Bk Lab Animal Co., Ltd. All animals were housed under a regimen of 12 h light/12 h dark cycles and specific pathogen-free conditions. 5×10^6 NCI-H526, ES-2, MDA-MB231, A2780, A375, B16F10, and TMD-8 cells (0.1 ml) were injected subcutaneously into female nude mice. The melanoma patient-derived xenograft model was derived from a human melanoma sample (BRAF, NARS and NF1 wild type, and p53 mutant) removed from a patient in Xiangya Hospital. Surgically removed tumor fragments were implanted subcutaneously into female NSG mice. When the tumors grew to ~1000 mm^3, they were harvested and cryopreserved or immediately re-implanted for expansion or experiments. Mouse body weight and tumor sizes were measured every 3 days. Once the tumors grew to 150–200 mm^3, mice were treated with the compounds as described in the Figures. 1 × 10^6 A2780 cells (1 ml) were injected into the abdominal cavity of nude mice. Ascitic volume and tumor weight were measured by an electronic balance. All the procedures were evaluated and approved by the Institutional Animal Care and Use Committee of Central South University and Yale University. […]
We apologize for not clearly labeling the experiments using compounds synthesized using Suzuki coupling method. In the revised manuscript, we modified the text to clearly mark the animal models in Fig 3d-f were tested using NHWD-870 synthesized using Suzuki […]
compared the activity of NHWD-870 synthesized using Stille coupling route with the NHWD-870 synthesized from Suzuki coupling route (Reviewer Figure 1). […]
activity and possible toxicity were identical.
Reviewer Figure 1 NHWD-870 synthesized through Stille or Suzuki route has similar properties in vivo. Tumor bearing mice were treated with 2mg/kg of the indicated compounds, orally administrated once daily for 21 days. Shown are tumor growth curves (a) and body weight change (b) for A375 melanoma bearing mice. […]
986158 in terms of potency, but apart from with the A375 melanocyte cell line, the advance seems relatively moderate. With such similar compounds, the pharmacokinetic properties and ability to accumulate at the desired site is often more important. Figure S6d (prev. Fig. 3d) in the previous

[4] = tested on: H526 tumors; assay: Immunofluorescent staining of cleaved caspase 3 and Ki67 in H526 tumors; format: in vivo, mouse; conditions: treated H526 tumors, independent images
Description: Immunofluorescence staining of tumor sections was performed according to the manufacturer’s instructions. Slides were imaged using a Zeiss Axiovert 200 fluorescence microscope (Carl Zeiss MicroImaging; Thornwood, NY), and images were captured using Openlab3 software (Imprecision, Lexington, MA). Cleaved caspase 3, Ki67, CSF1, and CD68 positive cells were counted with ImageJ version 1.52s[58].
Supplementary Figure 10. NHWD-870 increased tumor apoptosis and inhibite d tumor proliferation.
(a,b) Immunofluorescent staining of cleaved caspase 3 (apoptotic cells, red) and E-Cadherin (cancer cells, […]
green) in vehicle, NHWD-870 or BMS-986158 treated H526 tumors from Figure 4a. Shown are […]
representative images of cleaved caspase 3 positive cells (a) and quantification of cleaved caspase 3 positive […]
cells (b). Scale bar is 30 μm. Data are presented as mean ± SEM from 6 independent images. p values were […]
calculated using two-tailed, unpaired t tests. **, p<0.01; ***, p<0.001. (c,d) Immunofluorescent staining of […]
Ki67 (proliferating cells, red) and E-Cadherin (cancer cells, green) in vehicle, NHWD-870 or BMS-986158 […]
treated H526 tumors from (Figure 4a). Shown are representative images of Ki67 positive cells (c) and […]
quantification of Ki67 positive cells (d). Scale bar is 30 μm. […]
independent images. p values were calculated using two-tailed, unpaired t tests. *, p<0.05; ***, p<0.001. […]

[5] = Body weight change of H526 SCLC tumor bearing mice; conditions: for Mouse body weight changes (%) from Day 0: 3mg/kg, QDx21D, 3 mg/kg

Cc1nnn(C)c1-c1cnc2c3ccc(C(C)(C)O)cc3n([C@H](c3ccccc3)C3CCOCC3)c2c1 [BMS-986158, reference compound]
Cellular activity in SCLCs (H211), alamarBlue ([1]; concentration 0.0169701): 0.078 and 7.88 | Cellular activity in SCLCs (H211), alamarBlue ([1]; concentration 0.0398488): 0.019 and 6.06 | Cellular activity in SCLCs (H211), alamarBlue ([1]; concentration 0.137272): 0.036 and 13.2 | Cellular activity in SCLCs (H211), alamarBlue ([1]; concentration 0.614394): 28.16 and 35.58 | Cellular activity in SCLCs (H211), alamarBlue ([1]; concentration 1.09152): 74.14 and 79.88 | Cellular activity in SCLCs (H211), alamarBlue ([1]; concentration 1.56864): 88.17 and 88.8 | Cellular activity in SCLCs (H211), alamarBlue ([1]; concentration 2.04576): 89.55 and 89.3 | Cellular activity in SCLCs (H211), alamarBlue ([1]; concentration 3): 86.89 and 89.73 | Cellular activity in SCLCs (H211), alamarBlue ([1]; concentration column prints 2.52288): 87.67 and 88.48 | IC50 ([1]; Homo sapiens, NCI-H211, 72 h, 72 h treatment, nM, read-out: IC50, cellular activity in NCI-H211 (alamarBlue)): 6.6 nM | Cellular activity in TNBCs (MDA-MB231), alamarBlue ([2]; concentration 0.15): 20.45 and 20.15 | Cellular activity in TNBCs (MDA-MB231), alamarBlue ([2]; concentration 0.6): 51.35 and 50.6 | Cellular activity in TNBCs (MDA-MB231), alamarBlue ([2]; concentration 1): 73.39 and 72.09 | Cellular activity in TNBCs (MDA-MB231), alamarBlue ([2]; concentration 1.5): 83.55 and 84.39 | Cellular activity in TNBCs (MDA-MB231), alamarBlue ([2]; concentration 2): 88.19 and 87.76 | Cellular activity in TNBCs (MDA-MB231), alamarBlue ([2]; concentration 2.5): 88.65 and 88.13 | Cellular activity in TNBCs (MDA-MB231), alamarBlue ([2]; concentration 3): 90.46 and 90.37 | Cellular activity in TNBCs (MDA-MB231), alamarBlue ([2]; concentration -0.3): 6.95 and 6.37 | Cellular activity in TNBCs (MDA-MB231), alamarBlue ([2]; concentration -0.9): 4.15 and 1.05 | IC50 ([2]; Homo sapiens, MDA-MB-231, 72 h, 72 h treatment, nM, read-out: IC50, cellular activity in MDA-MB231 (alamarBlue)): 5 nM | Tumor volume ([3]; day 0): 150.774 mm3 and 118.553 mm3 and 191.653 mm3 and 150.802 mm3 and 127.386 mm3 and 173.315 mm3 | Tumor volume ([3]; day 4): 190.606 mm3 and 233.18 mm3 and 278.289 mm3 and 235.064 mm3 and 184.498 mm3 and 135.54 mm3 | Tumor volume ([3]; day 7): 243.772 mm3 and 508.815 mm3 and 374.344 mm3 and 456.749 mm3 and 169.114 mm3 and 146.329 mm3 | Tumor volume ([3]; day 11): 541.178 mm3 and 982.065 mm3 and 955.744 mm3 and 627.932 mm3 and 275.862 mm3 and 357.353 mm3 | Tumor volume ([3]; day 14): 840.395 mm3 and 1426.45 mm3 and 1137.31 mm3 and 1074.5 mm3 and 373.109 mm3 and 473.708 mm3 | Tumor volume ([3]; day 18): 1260.47 mm3 and 1267.54 mm3 and 1188.69 mm3 and 1129.05 mm3 and 402.127 mm3 and 719.097 mm3 | Tumor volume ([3]; day 21): 1603.7 mm3 and 1878.69 mm3 and 1789.35 mm3 and 1645.42 mm3 and 683.962 mm3 and 956.808 mm3 | % of KI67 (Ki67 positive cells) [4]: 15% and 17% and 13% and 16% and 12% | Body weight change (%) ([5]; 3mg/kg,QD, day 0 and day 20 or the last available data point, individual mice): -8.559% and -23.2889% and -19.9501% and -12.3957% | Mouse body weight changes (%) from Day 0 ([5]; Day 3, individual mice): -2.33% and 1.06% and -4.40% and 1.07% and 0.98% and -1.46% | Mouse body weight changes (%) from Day 0 ([5]; Day 7, individual mice): -0.51% and -2.62% and -8.04% and -1.69% and -7.56% and -3.13% | Mouse body weight changes (%) from Day 0 ([5]; Day 10, individual mice): 0.08% and -4.17% and 1.65% and -15.38% and -17.07% and -3.30% | Mouse body weight changes (%) from Day 0 ([5]; Day 14, individual mice): -5.26% and -0.68% and -6.36% and 0.13% and -8.04% and -3.28% | Mouse body weight changes (%) from Day 0 ([5]; Day 17, individual mice): -6.72% and -1.06% and -1.00% and -0.31% and -23.29% and -5.11% | Mouse body weight changes (%) from Day 0 ([5]; Day 20, individual mice): -12.40% and -8.56% and -1.00% and 1.16% and -19.95% | body weight loss ([5]; H526 SCLC tumor bearing mice, 3mg/kg QD): about 11%
